Source: article PMC10846744, “Cathelicidin peptide analogues inhibit EV71 infection through blocking viral entry and uncoating” (PLOS Pathogens, 2024)
Where no end group is shown, it is not given here.

Assays:
[1] = system: EV71 virus; experiment: EV71 infection inhibition on RD cells (VP1 immunoblot, viral titer, cell viability/CPE); format: cell-based, enterovirus 71 (EV71); conditions: for inhibition of EV71 viral VP1 protein expression: EV71 MOI = 1 pre-incubated with peptide 1 hr at room temperature, RD cells, immunoblotting, 24 h.p.i
Method: (§1) Synthetic peptides were purchased from Bioyears Co. Ltd. (Wuhan, China) with purity of more than 95% and dissolved in PBS. To test their inhibitory effects, the EV71 virus (MOI = 1) was incubated with the indicated amount of peptide at room temperature for 1 hr before the mixture was added to RD cells and maintained throughout the experiment. Cell viability, viral titer, or viral protein expression was determined 24 h.p.i. For the time-of-addition experiment, viruses were either pre-incubated with peptides (for the -2 and -1 time points), the mixture was added to the cells simultaneously (for 0 time point), or peptides were added after virus infection (for 1, 2, 4 and 7 h time points) and the virus/peptide was maintained in the culture before cell viability, viral titer, or viral protein expression was determined 24 h.p.i. The TCID50 of the virus was calculated according to the Reed-Muench method.
Cells were treated as described and harvested with LDS sample buffer (Thermo Fisher Scientific). After denaturation, samples were separated on 10% SDS-PAGE gel and then transferred to a polyvinylidene fluoride (PVDF) membrane. The proteins were blocked using 5% skimmed milk and probed with the corresponding antibodies. The following antibodies were used in this study: EV71 VP1 polyclonal antibody (GeneTex, Taiwan, China), β-Actin antibody (Zen BioScience, Chengdu, China), pan-Enterovirus Monoclonal antibody (Thermo Fisher Scientific). The chemiluminescence signals were visualized using ECL Advance reagents (Mishubio, China), and the images were acquired using the FUSION Solo S Imaging System (VILBER, France).
(§2) Cell viability assays were carried out using the Cell Titer-Glo Luminescent Cell Viability Assay Kit (Promega, Madison, WI) following the manufacturer’s instructions. Luminescence signals were measured using a BioTek Neo2 microplate reader.
For crystal violet staining, cells treated as indicated were first washed once with PBS, followed by fixation with 4% PFA. Cells were then stained with 0.5% crystal violet for 2 hrs before they were extensively washed with water.

[2] = system: Echovirus 7 (Echo7); experiment: Echo7 infection inhibition on RD cells (cell viability); format: cell-based; conditions: for inhibition of Echo7 infection: 0.3, 0.9, or 1.5 μM peptide pre-incubated with virus, RD cell viability 24 h.p.i (S1G Fig); for inhibition of Echo7 infection, higher concentrations: 3, 6, or 12 μM peptide pre-incubated with virus, RD cell viability 24 h.p.i (S1I Fig)
Method: as §1, §2
(A-D) Cell viability of RD cells treated with the indicated amount of DL-37 (A), LL-37 (B), LL-18 (C), or FF-18 (D) was plotted against peptide concentration, and the cytotoxicity was determined. (E) EV71 virus pre-incubated with indicated amounts of DL-37, and the cell viability was determined 24 h.p.i. ***, P<0.001. (F-G) CVB5 (F) or Echo7 (G) virus pre-incubated with 0.3, 0.9, or 1.5 μM of peptides were used to infect RD cells. Cell viability was determined 24 h.p.i. ***, P<0.001. (H-I) CVB5 (H) or Echo7 (I) virus pre-incubated with 3, 6, or 12 μM of peptides were used to infect RD cells. Cell viability was determined 24 h.p.i. ***, P<0.001. (TIF) Click here for additional data file.

[3] = system: EV71 subgenomic replicon; experiment: EV71 subgenomic replicon (SGR) Renilla luciferase assay; format: cell-based, enterovirus 71 (EV71); conditions: RD cells transfected with SGR RNA, 1.5 μM peptide for 3 or 6 hrs
Method: Fig 3 LL-18 and FF-18 inhibit viral attachment and internalization. (A) EV71 virus (MOI = 1) was pre-incubated with 1.5 μM LL-18, FF-18 or 12 μM 12s before they were used to incubate with RD cells at 4°C for 1 hr. Viral RNA was then determined with q-RT-PCR. Values are normalized to vehicle treated cells. ***, P<0.001. (B) EV71 virus (MOI = 1) was pre-incubated with 1.5 μM LL-18, FF-18 or 12 μM 12s before they were used to incubate with RD cells at 4°C for 1 hr followed by 37°C incubation for 1 hr. Viral RNA was then determined with q-RT-PCR. Values are normalized to vehicle treated cells. ***, P<0.001. (C) Diagram of EV71 subgenomic replicon. Part of the structural genes was replaced with a Renilla luciferase reporter gene. (D) RD cells transfected with EV71 SGR RNA were treated with 1.5 μM LL-18 or FF-18 for 3 hrs (left panel) or 6 hrs (right panel) before luciferase activity was measured. ns, not significant. […]
Full-length NanoLuc-EV71 reporter viruses and subgenomic EV71 replicon (SGR) were described previously. […] Nano luciferase and Renilla luciferase were measured with Nano-Glo or Renilla luciferase assay system from Promega (Madison, WI). Luminescence signals were measured using a BioTek Neo2 microplate reader.

[4] = system: EV71 virus; experiment: Pre-incubation of RD cells with peptide, wash-out, then EV71 infection; format: cell-based, enterovirus 71 (EV71); conditions: RD cells incubated with peptide 2 hrs, EV71 MOI = 1, cell viability 24 h.p.i (S3A Fig)
Method: Supplementary file ppat.1011967.s003.tif: S3 Fig LL-18 binds directly to virus particles. (A) RD cells were pre-incubated with indicated amounts of LL-18, FF-18, DL-37, or LL-37 for 2 hrs before they were washed extensively to remove unbound peptides. Cells were then infected with the EV71 virus (MOI = 1) and cell viability was determined 24 h.p.i. Values were normalized to uninfected RD cells. ***, P<0.001. (B). ^1H NMR spectra of FF-18 peptide in the absence or presence of EV71 virus (green line) or CVB5 virus (red line). (TIF) Click here for additional data file.

| Sequence | inhibition of EV71 infection (overall conclusion) [1] | reduction of EV71 viral titer in supernatant [1] | inhibition of EV71 viral VP1 protein expression [1] | inhibition of Echo7 infection [2] | inhibition of Echo7 infection, higher concentrations [2] | inhibition of EV71 SGR luciferase (viral translation or replication) [3] | protection when cells are pre-incubated with peptide and unbound peptide washed out [4] |
| --- | --- | --- | --- | --- | --- | --- | --- |
| FRKSKEKIGKLFKRIVQRILDFLRNLV [LL-18] | could effectively inhibit EV71 infection | reduce the viral titers dose-dependently | inhibit EV71 viral protein expression in a dose-dependent manner | neither LL-18 nor FF-18 could inhibit CVB5 or Echo 7 infection | could still not inhibit CVB5 or Echo 7 infection | no inhibition | EV71 could still infect these treated cells and cause cell death |
| FRKSKEKIGKFFKRIVQRIFDFLRNLV [FF-18] | could effectively inhibit EV71 infection | reduce the viral titers dose-dependently | inhibit EV71 viral protein expression in a dose-dependent manner | neither LL-18 nor FF-18 could inhibit CVB5 or Echo 7 infection | could still not inhibit CVB5 or Echo 7 infection | no inhibition | EV71 could still infect these treated cells and cause cell death |
